According to the kinase profiling compilation of Christmann-Franck et al. (2016):

Experiments:
Assay in all cases: radiometric filter-binding kinase assay, Kinase HotSpot
Settings in all cases: compound 0.5 µM; ATP 10 µM
CSK (human) = CSK (human) (UniProt P41240)
FGFR1 (human) = FGFR1 (human) (UniProt P11362)
HCK (human) = HCK (human) (UniProt P08631)
PRKX (human) = PRKX (human) (UniProt P51817)
STK39 (human) = STK39 (human) (UniProt Q9UEW8)
IRAK1 (human) = IRAK1 (human) (UniProt P51617)
WNK3 (human) = WNK3 (human) (UniProt Q9BYP7)
GSK3A (human) = GSK3A (human) (UniProt P49840)
MLTK (human) = MLTK (human) (UniProt Q9NYL2)
RPS6KA4 KD2 (human) = RPS6KA4 KD2 (human) (UniProt O75676)
MAP3K7 TAB1 (human) = MAP3K7 TAB1 (human) (UniProt O43318+Q15750)
CSNK2A1 (human) = CSNK2A1 (human) (UniProt P68400)
EPHA3 (human) = EPHA3 (human) (UniProt P29320)
CLK2 (human) = CLK2 (human) (UniProt P49760)
SRPK1 (human) = SRPK1 (human) (UniProt Q96SB4)
TTK (human) = TTK (human) (UniProt P33981)
RPS6KA6 KD1 KD2 (human) = RPS6KA6 KD1 KD2 (human) (UniProt Q9UK32)
FGFR2 (human) = FGFR2 (human) (UniProt P21802)
NEK4 (human) = NEK4 (human) (UniProt P51957)
DDR2 (human) = DDR2 (human) (UniProt Q16832)
ERBB4 (human) = ERBB4 (human) (UniProt Q15303)
BLK (human) = BLK (human) (UniProt P51451)
SIK2 (human) = SIK2 (human) (UniProt Q9H0K1)
FGFR3 (human) = FGFR3 (human) (UniProt P22607)
WNK2 (human) = WNK2 (human) (UniProt Q9Y3S1)
PRKCA (human) = PRKCA (human) (UniProt P17252)
MYLK (human) = MYLK (human) (UniProt Q15746)
LTK (human) = LTK (human) (UniProt P29376)
BRSK2 (human) = BRSK2 (human) (UniProt Q8IWQ3)
GRK6 (human) = GRK6 (human) (UniProt P43250)
STK16 (human) = STK16 (human) (UniProt O75716)
CAMKK2 (human) = CAMKK2 (human) (UniProt Q96RR4)
MARK2 (human) = MARK2 (human) (UniProt Q7KZI7)
PRKACA (human) = PRKACA (human) (UniProt P17612)
ZAP70 (human) = ZAP70 (human) (UniProt P43403)
JAK2 JH1 JH2 (human) = JAK2 JH1 JH2 (human) (UniProt O60674)
DYRK1A (human) = DYRK1A (human) (UniProt Q13627)
DAPK2 (human) = DAPK2 (human) (UniProt Q9UIK4)
PKN2 (human) = PKN2 (human) (UniProt Q16513)
PLK2 (human) = PLK2 (human) (UniProt Q9NYY3)
ALK (human) = ALK (human) (UniProt Q9UM73)
CDK6 CCND3 (human) = CDK6 CCND3 (human) (UniProt P30281+Q00534)

Chain of FGFR3 (human) (P22607 whole entry, looked up): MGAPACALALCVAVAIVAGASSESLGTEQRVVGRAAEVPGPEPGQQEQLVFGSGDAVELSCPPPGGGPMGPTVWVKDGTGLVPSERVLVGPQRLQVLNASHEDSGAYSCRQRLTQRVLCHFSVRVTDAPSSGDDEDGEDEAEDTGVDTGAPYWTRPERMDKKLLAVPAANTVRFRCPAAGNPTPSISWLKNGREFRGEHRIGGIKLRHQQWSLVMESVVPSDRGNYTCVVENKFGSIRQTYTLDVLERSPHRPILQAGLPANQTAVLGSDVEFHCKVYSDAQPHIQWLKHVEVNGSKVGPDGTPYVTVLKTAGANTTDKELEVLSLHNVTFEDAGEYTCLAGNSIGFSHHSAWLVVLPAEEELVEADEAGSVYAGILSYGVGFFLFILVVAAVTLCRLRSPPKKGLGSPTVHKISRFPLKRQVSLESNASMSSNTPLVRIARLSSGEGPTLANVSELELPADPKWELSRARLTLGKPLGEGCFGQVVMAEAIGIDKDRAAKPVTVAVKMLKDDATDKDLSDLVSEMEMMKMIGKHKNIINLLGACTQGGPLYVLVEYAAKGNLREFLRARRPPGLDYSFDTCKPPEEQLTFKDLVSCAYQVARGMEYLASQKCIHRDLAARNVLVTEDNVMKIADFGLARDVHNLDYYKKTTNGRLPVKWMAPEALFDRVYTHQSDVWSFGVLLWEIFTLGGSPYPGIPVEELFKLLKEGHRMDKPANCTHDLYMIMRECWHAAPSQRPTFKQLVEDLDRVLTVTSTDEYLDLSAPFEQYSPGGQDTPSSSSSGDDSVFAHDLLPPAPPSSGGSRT
Chain of DAPK2 (human) (Q9UIK4 whole entry, looked up): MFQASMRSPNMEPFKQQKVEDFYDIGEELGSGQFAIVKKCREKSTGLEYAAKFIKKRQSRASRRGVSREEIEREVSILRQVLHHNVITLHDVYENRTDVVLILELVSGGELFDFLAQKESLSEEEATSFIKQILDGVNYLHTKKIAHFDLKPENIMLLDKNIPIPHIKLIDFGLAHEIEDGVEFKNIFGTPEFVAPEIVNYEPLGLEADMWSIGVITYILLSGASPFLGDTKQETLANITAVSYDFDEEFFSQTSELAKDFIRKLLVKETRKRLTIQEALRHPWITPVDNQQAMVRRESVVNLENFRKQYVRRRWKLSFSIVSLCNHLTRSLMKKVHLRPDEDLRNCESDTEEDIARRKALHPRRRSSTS
Chain of FGFR1 (human) (P11362 whole entry, looked up): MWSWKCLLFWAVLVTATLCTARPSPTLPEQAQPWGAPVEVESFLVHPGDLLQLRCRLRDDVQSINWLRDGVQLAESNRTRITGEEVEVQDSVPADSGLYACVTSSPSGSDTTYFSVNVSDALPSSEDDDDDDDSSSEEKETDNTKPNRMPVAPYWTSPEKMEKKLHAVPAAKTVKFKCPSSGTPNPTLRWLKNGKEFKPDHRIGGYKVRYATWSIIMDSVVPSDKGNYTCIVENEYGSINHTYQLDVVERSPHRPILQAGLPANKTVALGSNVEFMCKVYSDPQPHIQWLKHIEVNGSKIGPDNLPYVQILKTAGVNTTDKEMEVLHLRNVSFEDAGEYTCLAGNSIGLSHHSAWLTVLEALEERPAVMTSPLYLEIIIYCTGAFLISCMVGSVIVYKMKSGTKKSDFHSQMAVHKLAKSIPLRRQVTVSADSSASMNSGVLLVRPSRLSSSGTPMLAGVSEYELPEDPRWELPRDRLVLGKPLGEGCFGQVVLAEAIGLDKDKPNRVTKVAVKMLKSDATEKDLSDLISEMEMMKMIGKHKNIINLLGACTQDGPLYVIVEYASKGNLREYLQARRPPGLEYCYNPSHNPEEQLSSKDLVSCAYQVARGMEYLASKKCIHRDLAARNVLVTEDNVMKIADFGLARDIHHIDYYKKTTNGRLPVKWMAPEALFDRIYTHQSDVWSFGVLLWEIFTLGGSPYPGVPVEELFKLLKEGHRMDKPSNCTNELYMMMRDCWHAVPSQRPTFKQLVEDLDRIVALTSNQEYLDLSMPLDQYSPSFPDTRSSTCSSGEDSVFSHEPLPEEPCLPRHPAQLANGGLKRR
Chain of CSNK2A1 (human) (P68400 whole entry, looked up): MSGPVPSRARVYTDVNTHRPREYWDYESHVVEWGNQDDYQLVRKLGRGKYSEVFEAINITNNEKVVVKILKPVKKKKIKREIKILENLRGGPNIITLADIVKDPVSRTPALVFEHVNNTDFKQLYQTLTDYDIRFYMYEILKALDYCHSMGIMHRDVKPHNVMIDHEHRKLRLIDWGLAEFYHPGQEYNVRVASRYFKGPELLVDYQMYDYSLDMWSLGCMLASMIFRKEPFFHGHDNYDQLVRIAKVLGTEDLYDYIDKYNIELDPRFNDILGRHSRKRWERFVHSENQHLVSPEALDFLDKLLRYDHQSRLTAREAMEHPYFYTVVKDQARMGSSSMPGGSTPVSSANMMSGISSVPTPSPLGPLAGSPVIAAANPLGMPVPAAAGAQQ
Chain of SRPK1 (human) (Q96SB4 whole entry, looked up): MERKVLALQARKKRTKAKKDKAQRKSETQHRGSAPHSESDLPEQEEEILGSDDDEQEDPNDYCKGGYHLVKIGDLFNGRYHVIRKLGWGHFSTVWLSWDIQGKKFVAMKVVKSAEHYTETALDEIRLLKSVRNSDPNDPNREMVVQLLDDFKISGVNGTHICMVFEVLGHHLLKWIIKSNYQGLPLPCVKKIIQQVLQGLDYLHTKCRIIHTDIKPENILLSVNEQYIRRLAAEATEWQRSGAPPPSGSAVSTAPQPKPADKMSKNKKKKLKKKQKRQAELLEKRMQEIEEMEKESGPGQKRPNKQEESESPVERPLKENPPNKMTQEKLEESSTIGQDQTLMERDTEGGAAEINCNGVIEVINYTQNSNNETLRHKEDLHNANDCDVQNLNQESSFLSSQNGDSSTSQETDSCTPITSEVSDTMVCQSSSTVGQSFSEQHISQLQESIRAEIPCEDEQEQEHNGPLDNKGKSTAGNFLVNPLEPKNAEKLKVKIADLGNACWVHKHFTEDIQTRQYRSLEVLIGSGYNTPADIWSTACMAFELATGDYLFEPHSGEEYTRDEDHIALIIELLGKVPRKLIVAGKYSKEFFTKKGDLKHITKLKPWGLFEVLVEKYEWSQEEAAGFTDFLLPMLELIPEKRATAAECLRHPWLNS
Chain of EPHA3 (human) (P29320 whole entry, looked up): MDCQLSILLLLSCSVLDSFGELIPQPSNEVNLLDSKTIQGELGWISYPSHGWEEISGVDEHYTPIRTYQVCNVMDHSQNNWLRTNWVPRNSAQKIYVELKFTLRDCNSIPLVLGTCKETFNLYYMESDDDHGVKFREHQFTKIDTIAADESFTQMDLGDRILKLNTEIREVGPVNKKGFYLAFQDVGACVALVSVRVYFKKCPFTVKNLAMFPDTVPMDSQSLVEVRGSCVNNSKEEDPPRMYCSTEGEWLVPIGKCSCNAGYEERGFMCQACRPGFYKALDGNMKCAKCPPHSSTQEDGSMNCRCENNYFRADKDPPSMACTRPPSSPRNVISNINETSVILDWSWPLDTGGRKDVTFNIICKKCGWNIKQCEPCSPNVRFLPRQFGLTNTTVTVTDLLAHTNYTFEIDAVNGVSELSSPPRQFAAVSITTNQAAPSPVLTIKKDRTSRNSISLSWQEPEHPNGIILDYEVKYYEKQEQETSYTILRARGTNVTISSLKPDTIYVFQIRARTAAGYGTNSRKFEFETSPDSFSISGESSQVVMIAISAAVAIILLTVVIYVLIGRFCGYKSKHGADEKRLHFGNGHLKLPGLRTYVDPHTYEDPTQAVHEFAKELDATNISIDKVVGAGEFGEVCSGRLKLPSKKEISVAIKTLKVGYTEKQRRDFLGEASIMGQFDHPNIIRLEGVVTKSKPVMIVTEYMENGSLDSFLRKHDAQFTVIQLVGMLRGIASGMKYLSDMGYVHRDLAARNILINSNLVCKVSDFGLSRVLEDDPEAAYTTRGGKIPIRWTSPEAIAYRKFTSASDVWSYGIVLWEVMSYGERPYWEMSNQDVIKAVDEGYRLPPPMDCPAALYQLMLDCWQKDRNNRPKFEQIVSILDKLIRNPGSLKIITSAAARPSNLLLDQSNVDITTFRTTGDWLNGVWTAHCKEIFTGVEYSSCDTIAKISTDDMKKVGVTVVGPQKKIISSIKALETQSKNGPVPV
Chain of TTK (human) (P33981 whole entry, looked up): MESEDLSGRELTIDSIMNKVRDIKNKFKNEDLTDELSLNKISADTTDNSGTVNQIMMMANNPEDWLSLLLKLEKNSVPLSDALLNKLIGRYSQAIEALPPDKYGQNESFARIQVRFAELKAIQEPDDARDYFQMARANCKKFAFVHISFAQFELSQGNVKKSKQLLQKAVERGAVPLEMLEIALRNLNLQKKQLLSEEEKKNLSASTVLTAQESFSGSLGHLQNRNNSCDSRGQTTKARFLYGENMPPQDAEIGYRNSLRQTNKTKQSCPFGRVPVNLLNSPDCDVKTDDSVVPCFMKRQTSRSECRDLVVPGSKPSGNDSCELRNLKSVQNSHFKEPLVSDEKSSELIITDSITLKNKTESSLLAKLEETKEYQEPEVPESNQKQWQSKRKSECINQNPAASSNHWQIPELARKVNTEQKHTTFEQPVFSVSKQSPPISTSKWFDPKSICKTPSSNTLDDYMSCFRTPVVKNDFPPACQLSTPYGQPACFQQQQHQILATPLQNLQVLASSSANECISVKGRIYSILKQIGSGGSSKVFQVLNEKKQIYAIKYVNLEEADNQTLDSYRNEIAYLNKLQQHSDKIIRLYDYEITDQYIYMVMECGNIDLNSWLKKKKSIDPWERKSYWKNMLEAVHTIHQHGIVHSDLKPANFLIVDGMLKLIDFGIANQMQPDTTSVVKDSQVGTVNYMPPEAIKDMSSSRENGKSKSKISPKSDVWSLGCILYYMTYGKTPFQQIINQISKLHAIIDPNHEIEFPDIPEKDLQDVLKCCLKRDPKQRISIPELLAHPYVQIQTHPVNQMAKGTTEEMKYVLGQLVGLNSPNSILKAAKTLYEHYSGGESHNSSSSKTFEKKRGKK

## O=C1Nc2ccccc2/C1=C\c1c(Cl)[nH]c2ccccc12
CSK (human)
  residual activity: 101%
FGFR1 (human)
  residual activity: 92%
HCK (human)
  residual activity: 98.5%
PRKX (human)
  residual activity: 106%
STK39 (human)
  residual activity: 104%
IRAK1 (human)
  residual activity: 89.5%
WNK3 (human)
  residual activity: 101%
GSK3A (human)
  residual activity: 99.3%
MLTK (human)
  residual activity: 99.2%
RPS6KA4 KD2 (human)
  residual activity: 93.6%
MAP3K7 TAB1 (human)
  residual activity: 99.2%
CSNK2A1 (human)
  residual activity: 89.4%
EPHA3 (human)
  residual activity: 95.1%
CLK2 (human)
  residual activity: 92.7%
SRPK1 (human)
  residual activity: 94.2%
TTK (human)
  residual activity: 101%
RPS6KA6 KD1 KD2 (human)
  residual activity: 91.2%
FGFR2 (human)
  residual activity: 102%
NEK4 (human)
  residual activity: 97.7%
DDR2 (human)
  residual activity: 92.7%
ERBB4 (human)
  residual activity: 103%
BLK (human)
  residual activity: 95.4%
SIK2 (human)
  residual activity: 103%
FGFR3 (human)
  residual activity: 101%
WNK2 (human)
  residual activity: 93.4%
PRKCA (human)
  residual activity: 63.2%
MYLK (human)
  residual activity: 90.4%
LTK (human)
  residual activity: 95.1%
BRSK2 (human)
  residual activity: 96.2%
GRK6 (human)
  residual activity: 107%
STK16 (human)
  residual activity: 102%
CAMKK2 (human)
  residual activity: 97.8%
MARK2 (human)
  residual activity: 94.7%
PRKACA (human)
  residual activity: 102%
ZAP70 (human)
  residual activity: 106%
JAK2 JH1 JH2 (human)
  residual activity: 103%
DYRK1A (human)
  residual activity: 107%
DAPK2 (human)
  residual activity: 96.8%
PKN2 (human)
  residual activity: 96.3%
PLK2 (human)
  residual activity: 98.2%
ALK (human)
  residual activity: 97.9%
CDK6 CCND3 (human)
  residual activity: 104%

## O=C1Nc2cc(Br)ccc2/C1=C1/Nc2ccccc2/C1=N\O
CSK (human)
  residual activity: 65.8%
FGFR1 (human)
  residual activity: 45.1%
HCK (human)
  residual activity: 13.3%
PRKX (human)
  residual activity: 92.1%
STK39 (human)
  residual activity: 104%
IRAK1 (human)
  residual activity: 103%
WNK3 (human)
  residual activity: 93.8%
GSK3A (human)
  residual activity: 3.6%
MLTK (human)
  residual activity: 69%
RPS6KA4 KD2 (human)
  residual activity: 56.1%
MAP3K7 TAB1 (human)
  residual activity: 79.3%
CSNK2A1 (human)
  residual activity: 82.2%
EPHA3 (human)
  residual activity: 81.9%
CLK2 (human)
  residual activity: 91.9%
SRPK1 (human)
  residual activity: 94.9%
TTK (human)
  residual activity: 69.8%
RPS6KA6 KD1 KD2 (human)
  residual activity: 43.1%
FGFR2 (human)
  residual activity: 59.2%
NEK4 (human)
  residual activity: 96.7%
DDR2 (human)
  residual activity: 69.7%
ERBB4 (human)
  residual activity: 96.8%
BLK (human)
  residual activity: 11.3%
SIK2 (human)
  residual activity: 31.1%
FGFR3 (human)
  residual activity: 54.6%
WNK2 (human)
  residual activity: 104%
MYLK (human)
  residual activity: 45%
LTK (human)
  residual activity: 89.3%
BRSK2 (human)
  residual activity: 19.4%
GRK6 (human)
  residual activity: 79.9%
STK16 (human)
  residual activity: 64%
CAMKK2 (human)
  residual activity: 70.1%
MARK2 (human)
  residual activity: 61.8%
PRKACA (human)
  residual activity: 106%
ZAP70 (human)
  residual activity: 107%
JAK2 JH1 JH2 (human)
  residual activity: 93.8%
DYRK1A (human)
  residual activity: 101%
DAPK2 (human)
  residual activity: 91%
PKN2 (human)
  residual activity: 85.6%
PLK2 (human)
  residual activity: 98.9%
ALK (human)
  residual activity: 88.5%
CDK6 CCND3 (human)
  residual activity: 25.4%

## O=C1Cc2c([nH]c3ccc([N+](=O)[O-])cc23)-c2ccccc2N1
CSK (human)
  residual activity: 96.6%
FGFR1 (human)
  residual activity: 88.6%
HCK (human)
  residual activity: 71.8%
PRKX (human)
  residual activity: 74.5%
STK39 (human)
  residual activity: 77.5%
IRAK1 (human)
  residual activity: 93.1%
WNK3 (human)
  residual activity: 99.7%
GSK3A (human)
  residual activity: 0.971%
RPS6KA4 KD2 (human)
  residual activity: 90.6%
MAP3K7 TAB1 (human)
  residual activity: 67.5%
CSNK2A1 (human)
  residual activity: 86.8%
EPHA3 (human)
  residual activity: 97.8%
CLK2 (human)
  residual activity: 97.7%
SRPK1 (human)
  residual activity: 100%
TTK (human)
  residual activity: 87.4%
RPS6KA6 KD1 KD2 (human)
  residual activity: 38%
FGFR2 (human)
  residual activity: 96.7%
NEK4 (human)
  residual activity: 109%
DDR2 (human)
  residual activity: 103%
ERBB4 (human)
  residual activity: 87.3%
BLK (human)
  residual activity: 94.2%
SIK2 (human)
  residual activity: 56.5%
FGFR3 (human)
  residual activity: 90.5%
WNK2 (human)
  residual activity: 116%
PRKCA (human)
  residual activity: 59.9%
MYLK (human)
  residual activity: 88.8%
LTK (human)
  residual activity: 93.9%
BRSK2 (human)
  residual activity: 34.5%
GRK6 (human)
  residual activity: 93.8%
STK16 (human)
  residual activity: 93.1%
CAMKK2 (human)
  residual activity: 79.5%
MARK2 (human)
  residual activity: 52.4%
PRKACA (human)
  residual activity: 87.4%
ZAP70 (human)
  residual activity: 91.4%
JAK2 JH1 JH2 (human)
  residual activity: 103%
DYRK1A (human)
  residual activity: 86.2%
DAPK2 (human)
  residual activity: 97.2%
PKN2 (human)
  residual activity: 74.5%
PLK2 (human)
  residual activity: 106%
ALK (human)
  residual activity: 94.2%
